Laboratory results as given in patent US20110288036A1, “Methods for Treating or Preventing Vascular Graft Failure” (priority 2010, published 2011).
“Also recorded” adds a separate entry of the source.

What was measured:
[1] = test system: human coronary artery endothelial cells (HCAEC); test: IL-6 and IL-8 ELISA in TNF-α-stimulated HCAEC; type: cell-based; conditions: 0.5 mM, 24 hours after 6 hour TNF-α
Procedure: Primary human coronary artery endothelial cells (HCAEC) were cultured and seeded onto a 96-well plate, using methods described in the MTS proliferation assay above. Cells were again stimulated with 20 ng/ml of TNF-α for 6 hours and then treated with MMI-0100 (SEQ ID NO: 1) for approximately 24 hours. Supernatants were then collected and analyzed for drug effect on inflammatory cytokines.
IL-6 (Cat #: 900-K16; Lot #: 0909016) and IL-8 (Cat #: 900-K18; Lot #: 0209018) ELISA kits (Peprotech; Rocky Hill, N.J.) were used to measure levels of these cytokines from HCAEC supernatants following treatment with MMI-0100 ([…]; SEQ ID NO: 1). The Human IL-6 ELISA development kit contains the key components required for the quantitative measurement of natural and/or recombinant hIL-6 in a sandwich ELISA format within the range of 32-2000 pg/ml. Human IL-8 ELISA development kit contains the key components required for the quantitative measurement of natural and/or recombinant hIL-8 in a sandwich ELISA format within the range of 16-1000 pg/ml. […]
Briefly, 10 μl of supernatant was diluted with 90 μl of diluents; 3 replicates of each sample were used. Data were collected at 405 nm with correction at 650 nm on a plate reader. Each plate was monitored for 1 hour with readings taken every 5 minutes. Concentrations of IL-6 and IL-8 in test samples were determined by extrapolating from a standard curve. […]

THP-1 cells = test: Cytokine ELISA in PMA/LPS-activated THP-1 cells; type: cell-based, human; conditions: PMA then LPS
Procedure: The ability of MMI-0100 ([…]; SEQ ID NO: 1) to inhibit the production of inflammatory cytokines (TNF-α and IL-1β) in vitro was examined using THP-1 cells. Briefly, THP-1 cells were activated with PMA for 24 hours, and treated subsequently with 10 μg of LPS. The amount of inflammatory cytokines (TNF-α and IL-1β, pg/ml) produced in the medium in the presence or absence of increasing concentrations (1 μM, 3 μM, 10 μM, and 30 μM) of MMI-0100 ([…]; SEQ ID NO: 1) was determined by cytokine specific enzyme-linked immunosorbent assay (ELISA). Analysis of inflammatory cytokines (TNF-α and IL-1β) was performed with cytokine-specific ELISA kit (PeproTech, Inc., Rocky Hill, N.J.). The cytokine-specific ELISA employs highly-purified anti-cytokine antibodies (capture antibodies) that are noncovalently adsorbed (“coated”) onto plastic microwell plates. After washings, the immobilized antibodies capture specifically soluble cytokine proteins present in samples applied to the plate. After washing away unbound material, the captured cytokine proteins are detected by biotin-conjugated anti-cytokine antibodies (detection antibodies) followed by an enzyme-labeled avidin or streptavidin reporter. Following addition of a chromogenic (color-developing) substrate-containing solution, the level of colored product generated by the bound, enzyme-linked, detection reagents can be measured spectrophotometrically using an ELISA-plate reader at an appropriate optical density.
In order to prepare plates for ELISA, capture antibodies (anti-TNF-α or anti-IL-1β antibodies) were diluted with PBS to a concentration of 1 μg/ml. 100 μl of each diluted antibody was added immediately to each well of the ELISA plate. […]
The standard was diluted from 2 ng/ml to zero in diluent, and 100 μl of the standard or sample was added immediately to each well in triplicate and incubated at room temperature for at least 2 hours. […] The level of colored product generated by the bound, enzyme-linked, detection reagents was measured spectrophotometrically using an ELISA-plate reader at an appropriate optical density.

With YARAAARQARAKALARQLGVAA [MMI-0100] the “TNF-α-induced IL-6 expression” value [1] was “reduced the level of TNF-α-induced IL-6 expression to that of the untreated control”, the “TNF-α-induced IL-8 expression” value [1] was “did not affect the level of TNF-α-induced IL-8 expression; also recorded: no effect” and the “IL-1β level in the medium” value (THP-1 cells; 30 μM, PMA/LPS alone about 450 pg/ml) was “about 100 pg/ml”. The “TNF-α level in the medium” value (THP-1 cells; 30 μM, PMA/LPS alone about 1000 pg/ml) was “about 300 pg/ml” and the “production of pro-inflammatory cytokines (TNF-α and IL-1β)” value (THP-1 cells; 1, 3, 10 and 30 μM) was “inhibits the production of pro-inflammatory cytokines (i.e., TNF-α and IL-1β) in a dose-dependent manner”.
